Laboratory results published in patent publication US20240199676A1, “ANTIVIRAL COMPOUNDS AND METHODS OF MAKING AND USING THE SAME” (Gilead Sciences, Inc., priority 2022, published 2024).

What was measured:
[1] = test system: Human Rhinovirus 14 (HRV14) in H1-HeLa cells; assay: H1-HeLa HRV-CTG 384-well Assay (Ex. Y), HRV14; assay type: cell-based; settings: Rhinovirus B, 96 h; H1-HeLa cells, HRV14 MOI 1.0, 4 days, Celltiter-Glo; read-out: EC50 H1-HeLa_HRV14_HRV-CTG 384-well Assay (per Ex Y)
Source text: Example Y: H1-HeLa HRV-CTG 384-well Assay
H1-Hela cell line (ATCC, Manassas, VA, Cat #CRL-1958) was maintained in Dulbecco's […] (DMEM) (Corning, New York, NY, Cat #15-018CM) supplemented with 10% fetal bovine serum (FBS) (Hyclone, Logan, UT, Cat #SH30071-03), and 1× Penicillin-Streptomycin-L-Glutamine (Corning, New York, NY, Cat #30-009-CI). Cells were passaged 2 times per week to maintain sub-confluent densities and were used for experiments at passage 5-30. The Human Rhinovirus 1B (HRV1B) (ATCC, Manassas, VA, Cat #VR-1645) , Human Rhinovirus 14 (HRV14) (ATCC, Manassas, VA, Cat #VR-284), and Human Rhinovirus 16 (HRV16) (ATCC, Manassas, VA, Cat #BR-283) was obtained through ATCC. Viral infection was monitored by determining viability of H1-HeLa cells as described below.
Test molecules are prepared in 100% DMSO in 384-well polypropylene plates (Greiner, Monroe, NC, Cat #784201) with 8 compounds per plate in grouped replicates of 4 at 10 serially diluted concentrations (1:3). The serially diluted compounds were transferred to low dead volume Echo plates (Labcyte, Sunnyvale, CA, Cat #LP-0200).
The test compounds were spotted to 384-well assay plates (Greiner, Monroe, NC, Cat#781091) at 200 nL per well using an Echo acoustic dispenser (Labcyte, Sunnyvale, CA). H1-HeLa cells were harvested and suspended in DMEM (supplemented with 2% FBS and 1× Penicillin-Streptomycin-L-Glutamine) and seeded to the pre-spotted assay plates at 5,000 cells per well in 30 μL. HRV1B, HRV14, and HRV16 was diluted in DMEM (supplemented with 2% FBS and 1× Penicillin-Streptomycin-L-Glutamine) at 97.1 million Infectious Units (IU) per mL, 151 million IU per mL and 221 million IU per mL respectively. 10 μL of virus per well was added to the assay plates containing cells and compounds, for an MOI of 0.5, 1.0, and 0.25 respectively. The assay plates were incubated for 4 days at 37° C. and 5% CO2. At the end of incubation, Celltiter-Glo (Promega, Madison, WI, Cat #(Ga7573) was prepared. The assay plates and Celltiter-Glo reagent were equilibrated to room temperature for at least 15 minutes. 40 μL per well of Celltiter-Glo reagent was added and the plates were incubated at room temperature for 15 minutes before reading the luminescence signal on an EnVision multimode plate reader (Perkin Elmer, Waltham, MA). Rupintrivir was used as positive control and DMSO was used as negative control. Values were normalized to the positive and negative controls (as 0% and 100% replication, respectively) and data was fitted using non-linear regression analysis by Gilead's dose response tool. The EC50 value for each compound was defined as the concentration reducing viral replication by 50%.

[2] = test system: Respiratory syncytial virus recombinant with luciferase (RSV-Luc5) in NHBE cells; assay: NHBE RSV-Luc5 384-well Assay (RSV FLUC NHBE 384 V2, Ex. W); assay type: cell-based; settings: human respiratory syncytial virus, 72 h, read-out: EC50 RSV FLUC NHBE 384 V2 (per Ex. W)
How it was run: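 NHBE cells (passage 2) seeded at 5,000 cells/well onto pre-spotted compounds, 10-point 1:3 dilutions, then infected with RSV-Luc5 at MOI 1. After 3 days at 37 °C, luciferase luminescence was read with One-Glo. Data normalized to remdesivir (0%) and DMSO (100% replication); EC50 from non-linear regression.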

In the case of CC1(CC(=O)OC[C@@]2(C#N)O[C@@H](c3ccc4c(N)ncnn34)[C@H](O)[C@@H]2O)CCC1 [Compound 33, ((2R,3S,4R,5S)-5-(4-aminopyrrolo[2,1-f][1,2,4]triazin-7-yl)-2-cyano-3,4-dihydroxytetrahydrofuran-2-yl)methyl 2-(1-methylcyclobutyl)acetate], the EC50 [1] is reported as 20.8 µM and the EC50 [2] is reported as 50 µM.

CCC(C)(C)C(=O)OC[C@@]1(C#N)O[C@@H](c2ccc3c(N)ncnn23)[C@H](O)[C@@H]1O [Compound 35, ((2R,3S,4R,5S)-5-(4-aminopyrrolo[2,1-f][1,2,4]triazin-7-yl)-2-cyano-3,4-dihydroxytetrahydrofuran-2-yl)methyl 2,2-dimethylbutanoate] was tested, and the EC50 [1] was 24.6 µM and the EC50 [2] was 9.6 µM.

With CC1(C)CC(C(=O)OC[C@@]2(C#N)O[C@@H](c3ccc4c(N)ncnn34)[C@H](O)[C@@H]2O)C1 [Compound 17, ((2R,3S,4R,5S)-5-(4-aminopyrrolo[2,1-f][1,2,4]triazin-7-yl)-2-cyano-3,4-dihydroxytetrahydrofuran-2-yl)methyl 3,3-dimethylcyclobutane-1-carboxylate] the EC50 [1] was 7.83 µM and the EC50 [2] was 8.7 µM.
